The test system of assay [1] is A2780 cells (ovarian cancer cells). As to the kind of experiment: Cell viability of A2780 cells (Cell-titer Glo). The class given is cell-based. The settings on record: Homo sapiens. How it is done:
In order to confirm the inhibitory effect of the compound represented by formula 1 according to the present invention on the growth of MCF7, MCF7-SP, A2780 or A2780-SP cells, the following experiment was performed, and the results are shown in Tables 4 and 5 below.
In addition, A2780 cells (ovarian cancer cells) were plated in a 96-well plate at the density of 3000 viable cells per well, and cultured in RPMI-1640 medium supplemented with 10% FBS and 1% penicillin/streptomycin.
On the next day of culture, the cells were treated with the compound of Examples 57, and 69 to 144, followed by culture for 3 days. Cell viability was evaluated by Cell-titer Glo (Promega, WC, USA), and luciferase activity was detected using a Tecan plate reader (Biocompare, USA).

In assay [2] the target is T1, Pin1 (Homo sapiens, UniProt Q13526).
T1 construct: purchased Anaspec
T1 sequence (Q13526 whole entry): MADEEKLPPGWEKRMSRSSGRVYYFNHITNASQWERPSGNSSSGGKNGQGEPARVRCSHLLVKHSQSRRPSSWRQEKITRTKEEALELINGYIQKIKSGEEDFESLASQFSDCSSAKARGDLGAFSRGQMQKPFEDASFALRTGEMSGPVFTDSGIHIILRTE
As to the kind of experiment: Evaluation of Pin1 enzyme inhibitory activity (Sensolyte Green Pin1 assay kit). The class given is biochemical. The essentials:
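Compounds were tested at four working concentrations (100, 10, 1, 0.1 μM), mixed with Pin1 (50 μg/ml stock dilution), developer and substrate (1 μM as prepared). Fluorescence at 490/520 nm was recorded after 2 h in the dark at room temperature. Results were grouped into grades A–D by inhibiting concentration.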

Assay [3] deals with A2780-SP cells (ovarian cancer stem cells). As to the kind of experiment: Sphere cell viability of A2780-SP cells (Cell-titer Glo). The class given is cell-based. The gist of the method:
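A2780-SP ovarian cancer stem cells grown as spheres in ultra-low-attachment wells (1,500 cells/well) in neurobasal stem-cell medium with bFGF, EGF, B27. Compound added the day after plating, re-dosed on day 4, 8-day culture total; viability by CellTiter-Glo luminescence.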

The mark [4] stands for this setting: 72 h, cell viability, culture for 3 days, read-out: A2780.
Setting [5] is: Table 2, read-out: concentration at which Pin1 inhibitory activity was exhibited.
[6] abbreviates: concentration at which the Pin1 enzyme activity is inhibited, 2 hours at room temperature, fluorescence 490 nm/520 nm, read-out: Pin 1 inhibition.
Setting [7] is: 192 h, sphere cell viability, culture for 8 days, read-out: A2780-SP.
Setting [8] is: Table 5, read-out: the concentration (second list of b710, cell line not named; matches A2780-SP column).
Where [9] appears, read: A2780, Table 5, read-out: A2780 cell concentration.

Our source for the IC50 values is US12583818B2 (DAEGU-GYEONGBUK MEDICAL INNOVATION FOUNDATION, priority 2020, dated 2026).

SMILES strings stand for the structures. Read-outs that look alike come from different tables or passages of the source.

Take `O=S(=O)(NCCCc1c[nH]c2ccc(Cl)cc12)c1ccc(OC[C@H](O)CN2CCNCC2)cc1` [Example 172, (R)—N-(3-(5-chloro-1H-indol-3-yl)propyl)-4-(2-hydroxy-3-(piperazin-1-yl)propoxy)benzenesulfonamide]: the IC50 is > 10000 nM in assay [1] (setting [4]); < 1000 nM in assay [2] (setting [5]); < 1000 nM in assay [2] (setting [6]); < 1000 nM in assay [3] (setting [7]); < 1000 nM in assay [3] (setting [8]).
Turning to `CN1CCN(C[C@H](O)COc2ccc(S(=O)(=O)NCCCc3c[nH]c4ccc(Cl)cc34)cc2)CC1` [Example 173, (S)—N-(3-(5-chloro-1H-indol-3-yl)propyl)-4-(2-hydroxy-3-(4-methylpiperazin-1-yl)propoxy)benzenesulfonamide], the IC50 was 1000 to 10000 nM in assay [1] (setting [4]); < 10000 nM in assay [1] (setting [9]); < 1000 nM in assay [2] (setting [5]); < 1000 nM in assay [2] (setting [6]); < 1000 nM in assay [3] (setting [7]); < 1000 nM in assay [3] (setting [8]).
As for `O=S(=O)(NCCCc1c[nH]c2ccc(Cl)cc12)c1ccc(OC[C@@H](O)CN2CCNCC2)cc1` [Example 174, (S)—N-(3-(5-chloro-1H-indol-3-yl)propyl)-4-(2-hydroxy-3-(piperazin-1-yl)propoxy)benzenesulfonamide], the IC50 in assay [1] (setting [4]) was > 10000 nM; in assay [2] (setting [5]) it was < 1000 nM; in assay [2] (setting [6]) it was < 1000 nM; in assay [3] (setting [7]), < 1000 nM; in assay [3] (setting [8]) it was < 1000 nM.
With `Cc1ncn(CCCOc2ccc(S(=O)(=O)NCCCc3c[nH]c4ccc(Cl)cc34)cc2)c1C` [Example 175, N-(3-(5-chloro-1H-indol-3-yl)propyl)-4-(3-(4,5-dimethyl-1H-imidazol-1-yl)propoxy)benzenesulfonamide], the IC50 in assay [1] (setting [4]) was 1000 to 10000 nM; in assay [1] (setting [9]) it was < 10000 nM; in assay [2] (setting [5]), < 1000 nM; in assay [2] (setting [6]), < 1000 nM; in assay [3] (setting [7]) it was < 1000 nM; in assay [3] (setting [8]), < 1000 nM.
`Cc1nc(C)n(CCCOc2ccc(S(=O)(=O)NCCCc3c[nH]c4ccc(Cl)cc34)cc2)c1C` [Example 176, N-(3-(5-chloro-1H-indol-3-yl)propyl)-4-(3-(2,4,5-trimethyl-1H-imidazol-1-yl)propoxy)benzenesulfonamide]: the IC50 in assay [1] (setting [4]) is 1000 to 10000 nM; in assay [1] (setting [9]), < 10000 nM; in assay [2] (setting [5]), < 1000 nM; in assay [2] (setting [6]) it was < 1000 nM; in assay [3] (setting [7]) it was < 1000 nM; in assay [3] (setting [8]), < 1000 nM.
`CN1CCN(CCCOc2ccc(S(=O)(=O)NCC3CCc4[nH]c5ccc(Cl)cc5c4C3)cc2)CC1` (stereo not drawn) [Example 177, N-((6-chloro-2,3,4,9-tetrahydro-1H-carbazole-3-yl)methyl) 4-(3-(4-methylpiperazine-1-yl)propoxy)benzenesulfonamide]: the IC50 in assay [1] (setting [4]) was 1000 to 10000 nM; in assay [1] (setting [9]), < 10000 nM; in assay [2] (setting [5]), < 1000 nM; in assay [2] (setting [6]), < 1000 nM; in assay [3] (setting [7]), < 1000 nM; in assay [3] (setting [8]), < 1000 nM.
Consider `O=S(=O)(NCC1CCc2[nH]c3ccc(Cl)cc3c2C1)c1ccc(OCCCN2CCNCC2)cc1` (stereo not drawn) [Example 178, N-((6-chloro-2,3,4,9-tetrahydro-1H-carbazol-3-yl)methyl)-4-(3-(piperazin-1-yl)propoxy)benzenesulfonamide], for which the IC50 in assay [1] (setting [4]) is 1000 to 10000 nM; in assay [1] (setting [9]) it was < 10000 nM; in assay [2] (setting [5]) it was < 1000 nM; in assay [2] (setting [6]), < 1000 nM; in assay [3] (setting [7]), < 1000 nM; in assay [3] (setting [8]), < 1000 nM.
With `O=S(=O)(NCCCc1c[nH]c2cc(Cl)c(Cl)cc12)c1ccc(OCCCN2CCNCC2)cc1` [Example 183, N-(3-(5,6-dichloro-1H-indol-3-yl)propyl)-4-(3-(piperazin-1-yl)propoxy)benzenesulfonamide], the IC50 is > 10000 nM in assay [1] (setting [4]); < 1000 nM in assay [2] (setting [5]); < 1000 nM in assay [2] (setting [6]); < 1000 nM in assay [3] (setting [7]); < 1000 nM in assay [3] (setting [8]).
